Laboratory results as given in patent publication US9869616B2, “Hydrogel encapsulated cell patterning and transferring method and cell-based biosensor using the same” (UNIST ACADEMY-INDUSTRY RESEARCH CORPORATION, priority 2011, dated 2018).

Legend:
[1] = test system: araBAD promoter (PBAD) of pZBRG; assay: Induction of RFP from the genetic circuit pZBRG (araBAD promoter) in hydrogel-encapsulated cells; format: cell-based, Escherichia coli
[2] = test system: strain DH10B with plasmid pTrc99A-gfp; assay: Extracellular induction of hydrogel-encapsulated cells with pTrc99A-gfp (GFP expression) by the HPT method; format: cell-based, Escherichia coli; details: 1 mM IPTG in agarose substrate; average of 10 hydrogel microparticles; GFP produced until 8 hours
Experimental: Competent cells of the MG1655 and DH10B were transformed with synthetically engineered genetic circuits. Some plasmids were transferred from the Registry of Standard Biological Parts, and the others were constructed in the experiment with different antibiotic resistance marker genes. For the growth of these strains, each Escherichia coli culture was grown overnight on M 9 agar solid medium plates with appropriate antibiotics at 35° C. A single colony was used to inoculate 5 mL M9 media with 1% glucose, 1% tryptone, and either 100 μg/mL ampicillin or 30 μg/mL chloramphenicol. Thereafter, the cultures were then grown overnight (16 hours) with vigorous aeration (200 rpm in a rotary shaker), and OD600=1.5-2 cells (1-2 mL) were centrifuged at 5000 rpm for 5 min. The obtained pellet was resuspended with fresh M9 media to give bacterial suspensions with desired cell densities. […]
The images of cell patterns were taken using a stereomicroscope (SZX16, Olympus, Japan) equipped with a CCD camera (DP72, Olympus, Japan) and a fluorescent light source (Xcite-200, ExFo Photonics solutions Inc., Mississauga, Canada) operated by the DP2-BSW software (Olympus, Japan). […] All image processing and quantification of fluorescent intensities were performed using Image J. (NIH, USA), and then results were plotted using Origin 7.1 (OriginLab, Northampton, Mass., USA). […]

Structure (SMILES)	RFP expression of patterned cells ([1]; 400 mM arabinose in agarose substrate, in 8 hours)	threshold concentration (inducer gradient) ([1]; RFP gradient reaches saturated values in about 10 hours)	cross-talk on simultaneous induction (RFP) ([1]; both tetracycline (1 μM) and arabinose (400 μM))	fluorescent signals detected, separate induction ([1]; only arabinose (400 μM) in agarose substrate)	gene expression level (average GFP fluorescent intensity) [2]
O=C[C@@H](O)[C@H](O)[C@H](O)CO [arabinose]	activated to express red fluorescent protein (RFP)	relatively high	no significant cross-talk was observed	only RFP signals were detected	
CC(C)S[C@@H]1O[C@H](CO)[C@H](O)[C@H](O)[C@H]1O [IPTG, isopropyl-beta-D-thiogalactopyranoside]					40 AU
